Structures can show the parent of a compound that is named as a salt.
Tested on: patients hospitalized for acute heart failure (AHF)
Test: Echocardiographic parameters (tissue Doppler echocardiography), phase II trial of 24 h istaroxime infusion
Format: in vivo, human
Details: for A wave mean change from baseline / CI mean change from baseline / E wave mean change from baseline / E/A ratio mean change from baseline / E/e′ ratio mean change from baseline / EDV Index mean change from baseline / EDV mean change from baseline / ESV Index mean change from baseline / ESV mean change from baseline / IVC diameter mean change from baseline / LAA mean change from baseline / LAV mean change from baseline / LAVI mean change from baseline / LVEF mean change from baseline / PASP mean change from baseline / SVI mean change from baseline / S′ mean change from baseline / TAPSE mean change from baseline / e′ mean change from baseline: 0.5 μg/Kg/min; for E/e′ change from baseline to 24 h (primary endpoint): 0.5 μg/kg/min (cohort 1), mITT, hydrochloride
Excerpt: The measurement of one or more cardiac parameters disclosed herein can be measured by Echocardiography which may be performed on subjects according to international standards (see, for example, Lang R M et a I. J Am Soc Echocardiogr 2005; 18(12): 1440-63; Nagueh S F et al. Eur J Echocardiogr 2009; 10(2): 165-93; Evangelista A et a I. Eur J Echocardiogr 2008; 9(4):438-48).
In some embodiments, cardiac parameters can be measured as follows: • 1. Cardiac dimension measures: • a. Left ventricle end diastolic diameter (EDD): measured with M-mode echocardiography at the level of mitral valve (MV) leaflets from parasternal long axis view (PLAX) (normal range [N R]: 42-59 mm males and 39-53 mm females); • b. Left ventricle end systolic diameter (ESD): measured with M-mode echocardiography at the level of mitral valve (MV) leaflets from PLAX (N R: 25-35 mm): • c. Left ventricle end diastolic volume (EDV): measured with M-mode echocardiography at the level of mitral valve (MV) leaflets from PLAX (N R: 67-155 mL males and 56-104 mL females); • d. Left ventricle end systolic volume (ESV): measured with M-mode echocardiography at the level of mitral valve (MV) leaflets from PLAX (N R: 22-58 mL males and 19-49 mL females); • e. Left atrium diameter (LAD): measured at end-ventricular systole with M-mode echocardiography from PLAX. (N R: 30-40 mm males and 27-38 mm females) • f. Left atrium area (LAA): measured from apical four chamber view (NR: £20 cm2); and • g. Left atrium volume (LAV): derived from area-length measured from apical four chamber view (N R: 18-58 mL males and 22-52 mL females). • 2. Left ventricle diastolic function parameters: • a. E wave: measured from mitral valve pulsed wave Doppler, is the peak velocity of early filling. […] A wave: measured from mitral valve pulsed wave Doppler is the peak velocity of late atrial filling. Not evaluable in subjects with AF: • c. E wave deceleration time (EDT): measured from mitral valve pulsed wave Doppler represent the slope of the descending part of E wave; • d. E/A ratio: determines the type of diastolic filling pattern (normal E/A=1-2 and EDT=150-200 ms, abnormal relaxation E/A<1 and EDT>240 ms, pseudonormal E/A=0.8-1.5: restrictive E/A^32 and EDT <160 ms). Not evaluable in subjects with AF; • e. Ea: measured with tissue Doppler method at the lateral and septal side of the mitral annulus from apical four chamber view is the early diastolic velocity. The value has been calculated as the average between Ea lateral and Ea septal. (NR310 cm/s) (see Nagueh S F et al. Eur J Echocardiogr. 2009:10(2):165-93); • f. Aa: measured with tissue Doppler method at the lateral and septal side of the mitral annulus from apical four chamber view is the late atrial diastolic velocity. The value has been calculated as the average between Aa lateral and Aa septal. Not evaluable in subjects with AF; and • g. E/Ea ratio: this is a derived measure from E and Ea value. This is highly correlated with left ventricle filling pressure and with prognosis in subjects with HF. (NR: <13) (see Nagueh S F et al. supra). • 3. Left ventricle systolic function parameters: • a. Left ventricle ejection fraction (LVEF): measured with Simpson biplane method according to international recommendations from apical four chamber view and apical two chamber view. (NR ^355%) (see Lang R M et al. J Am Soc Echocardiogr. 2005:18(12): 1440-63); and • b. Sa: measured with tissue Doppler method at the lateral and septal side of the mitral annulus from apical four chamber view. The value has been calculated as the average between Sa lateral and Sa septal. […] Overall cardiac contraction parameters: • a. Stroke volume (SV): is a derived measure obtained with the application of Bernoulli's formula using the dimension of left ventricle outflow tract (LVOT) as diameter and LVOT time velocity integral as velocity. (NR>60 mL/beat); • b. Cardiac output (CO): is derived by the multiplication of SV× heart rate (HR) (NR: >4 L/min); • c. […]

[1] = 0.5 μg/kg/min, mean ± standard deviation

## C[C@]12CCC(=NOCCN)C[C@@H]1C(=O)C[C@@H]1[C@@H]2CC[C@]2(C)C(=O)CC[C@@H]12 [Istaroxime, (E,Z)-3-((2-aminoethoxy)imino)androstane-6,17-dione hydrochloride]
6 hours
  A wave mean change from baseline: 1.76 cm/s
  CI mean change from baseline: 0.20 l/min/m^2
  E wave mean change from baseline: -4.35 cm/s
  E/A ratio mean change from baseline: −0.28
  E/e′ ratio mean change from baseline: −3.48
  EDV Index mean change from baseline: 0.85 ml/m^2
  EDV mean change from baseline: 1.47 mL
  ESV Index mean change from baseline: −2.54 ml/m^2
  ESV mean change from baseline: -4.89 mL
  IVC diameter mean change from baseline: −2.41 mm
  LAA mean change from baseline: −0.38 cm^2
  LAV mean change from baseline: 0.05 mL
  LAVI mean change from baseline: −0.51 mL/m^2
  LVEF mean change from baseline: 2.03%
  PASP mean change from baseline: −4.21 mmHg
  SVI mean change from baseline: 5.66 ml/beat/m^2
  S′ mean change from baseline: 0.63 cm/s
  TAPSE mean change from baseline: 0.41 mm
  e′ mean change from baseline: 0.63 cm/s
24 hours
  A wave mean change from baseline: 5.13 cm/s
  CI mean change from baseline: 0.27 l/min/m^2
  E wave mean change from baseline: -8.14 cm/s
  E/A ratio mean change from baseline: −0.64
  E/e′ ratio mean change from baseline: −4.55
  EDV Index mean change from baseline: −0.20 ml/m^2
  EDV mean change from baseline: -0.71 mL
  ESV Index mean change from baseline: −3.78 ml/m^2
  ESV mean change from baseline: -7.11 mL
  IVC diameter mean change from baseline: −4.30 mm
  LAA mean change from baseline: −1.70 cm^2
  LAV mean change from baseline: -7.94 mL
  LAVI mean change from baseline: −4.32 mL/m^2
  LVEF mean change from baseline: 3.03%
  PASP mean change from baseline: −10.89 mmHg
  SVI mean change from baseline: 5.33 ml/beat/m^2
  S′ mean change from baseline: 0.68 cm/s
  TAPSE mean change from baseline: 0.73 mm
  e′ mean change from baseline: 0.94 cm/s
48 hours
  A wave mean change from baseline: -0.94 cm/s
  CI mean change from baseline: 0.19 l/min/m^2
  E wave mean change from baseline: -5.21 cm/s
  E/A ratio mean change from baseline: −0.28
  E/e′ ratio mean change from baseline: −2.56
  EDV Index mean change from baseline: −0.07 ml/m^2
  EDV mean change from baseline: -0.59 mL
  ESV Index mean change from baseline: −1.19 ml/m^2
  ESV mean change from baseline: -2.57 mL
  IVC diameter mean change from baseline: −4.16 mm
  LAA mean change from baseline: −2.01 cm^2
  LAV mean change from baseline: -9.17 mL
  LAVI mean change from baseline: −5.01 mL/m^2
  LVEF mean change from baseline: 1.19%
  PASP mean change from baseline: −11.18 mmHg
  SVI mean change from baseline: 3.68 ml/beat/m^2
  S′ mean change from baseline: 0.22 cm/s
  TAPSE mean change from baseline: −0.34 mm
  e′ mean change from baseline: 0.32 cm/s
Mean ± standard deviation
  E/e′ change from baseline to 24 h (primary endpoint): −4.55 ± 4.75
Mean ± standard deviation, listed as istaroxime
  E/e′ change from baseline to 24 h (primary endpoint): −4.55±4.75
[1]
  E/A ratio change at 24 h: −0.64 ± 0.79
  LV ejection fraction change at 24 h: 3.03 ± 4.04%
  LV end-diastolic volume index change at 24 h: −0.20 ± 5.45 mL/m^2
  LV end-systolic volume index change at 24 h: −3.78 ± 6.76 mL/m^2
  Left atrial area change at 24 h: −1.70 ± 2.46 cm^2
  Left atrial volume index change at 24 h: −4.32 ± 7.28 mL/m^2
  Stroke volume index change at 24 h: 5.33 ± 6.67 mL/beat/m^2
  S′ change at 24 h: 0.68 ± 0.91 cm/s

Source: patent US12697343B2, “Intravenous istaroxime for the treatment of acute heart failure” (Seismic Pharmaceuticals Operations LLC, priority 2021, dated 2026)
